Data: PubChem BioAssay AID1996
In brackets after ≈: the same amount, converted by molar mass.

details: buffer; pH 7.4; 200.0 µM

| SMILES | solubility kinetic [µg/mL] |
| --- | --- |
| CC(=O)c1ccc(S(=O)(=O)NCCC(=O)NC2CCN(Cc3ccccc3)CC2)cc1.O=C(O)C(=O)O | > 80 |
| O=C(CN1CCN(c2ccc(F)cc2)CC1)Nc1ccccc1 | > 47 |
| Cc1ccc(C)n1-c1ccc(C(=O)/C=C/N(C)C)cc1 | 25.6 (≈ 95.4 µM) |
| Cc1ccc(-c2cc(C(=O)N3CCC(C)CC3)c3ccccc3n2)cc1 | 6.6 (≈ 19.2 µM) |
| Cc1ccc2[nH]c(C(=O)O)c(NC(=O)[C@@H]3C[C@@H]3c3ccccc3)c2c1 | > 50.2 |
| O=C(NCc1ccco1)c1cc([N+](=O)[O-])ccc1Cl | 28.3 (≈ 101 µM) |
| CCN(C(=S)NC(=O)C1CC1)c1ccccc1 | > 37.3 |
| CN1CCCN=C1COC(=O)C(O)(c1ccccc1)C1CCCCC1.Cl (centres undefined) | > 57.1 |
| COc1ccccc1CNC(=S)Nc1ccc(F)cc1 | 12 (≈ 41.3 µM) |
| COc1ccc(N2CC2c2ccncc2)cc1 (centres undefined) | > 33.9 |
| Cc1ccc(C)c(S(=O)(=O)N2CCN(c3ncnc4sccc34)CC2)c1 | 5.6 (≈ 14.4 µM) |
| O=C(NCCc1ccc(Cl)cc1)Nc1ccc(Cl)cc1 | < 0.3 |
| O=C(OCC(=O)N1CCOCC1)c1ccc(Cl)cc1[N+](=O)[O-] | 48.3 (≈ 147 µM) |
| COc1ccc(C(=O)COC(=O)CNC(=O)c2ccc(C)s2)c(OC)c1 | > 56.6 |
| O=C(CCl)Nc1ncc(S(=O)(=O)c2ccc([N+](=O)[O-])cc2)s1 | > 54.3 |
| NC(C(=O)O)C(c1ccccc1)C(F)F (centres undefined) | 30 (≈ 139 µM) |
| CC(C)CNS(=O)(=O)c1cc2c3c(c1)CC(=O)N3CCC2 | 45.8 (≈ 149 µM) |
| Cc1nc(CSc2n[nH]c(=O)n2-c2cccc(F)c2)cs1 | > 48.4 |
| COc1ccc(CC(=O)Nc2nc3ccccc3[nH]2)cc1 | 0.7 (≈ 2.49 µM) |
| O=C(COC(=O)c1cnccn1)Nc1ccccc1-c1ccccc1 | > 50 |
| O=C(NCc1ccccn1)Nc1ccc(Br)cc1 | 14.9 (≈ 48.7 µM) |
| Cc1ccc(C(=O)CCC(=O)Nc2ncccc2C)cc1 | > 42.4 |
| CC(=O)c1c(C)[nH]c(C(=O)NNC(=O)c2ccc(C)cc2)c1C | > 47 |
| CCCC(=O)N1CCN(c2nc3ccc(CC)cc3s2)CC1 | 13.5 (≈ 42.5 µM) |

| SMILES | solubility kinetic [µg/mL] |
| --- | --- |
| CC(=O)C1=C(C)NC2=C(C(=O)CC(C)(C)C2)C1C (centres undefined) | > 37.1 |
| COc1cccc2c1CCc1c-2nc2ccccc2c1C(=O)O | > 45.8 |
| COc1ccc(NC(=O)C2CCN(C(=O)c3ccco3)CC2)c(OC)c1 | 44.2 (≈ 123 µM) |
| NS(=O)(=O)c1ccc(Sc2ccc3ccccc3c2)nc1 | 2.1 (≈ 6.64 µM) |
| O=C(CN1CCCCC1)n1c2ccccc2c2ccccc21 | 24.3 (≈ 83.1 µM) |
| CCOc1ccc(C(=O)Cn2cnc3ccccc3c2=O)cc1 | 8.5 (≈ 27.6 µM) |
| O=C(CSc1cccc[n+]1[O-])NCCCc1ccccc1 | > 45.4 |
| COc1ccc(Cl)cc1NC(=O)COC(=O)c1cc(C)oc1C | 4.2 (≈ 12.4 µM) |
| CCOc1ccc(C(=O)NCC(=O)N2CCCCCCC2)cc1 | > 47.8 |
| S=C(NCCCc1ccccc1)Nc1ccccc1 | 31.9 (≈ 118 µM) |
| Cc1ccc(S(=O)(=O)NCC(=O)Nc2cccnc2)cc1C | > 47.9 |
| S=C(NC1CC1)SCc1ccco1 | 10.3 (≈ 48.3 µM) |
| COc1ccccc1CNC(=O)C(c1ccccc1)c1ccccc1 | < 0.7 |
| S=C(NCc1ccco1)N1CCC(c2nc3ccccc3o2)CC1 | 11.3 (≈ 33.1 µM) |
| O=C(NC(=S)N1CCOCC1)c1ccccc1Cl | > 42.7 |
| Cc1cc(=O)[nH]c(SCC(=O)NC2CCCCCCC2)n1 | > 46.4 |
| CCc1ccc(C2CC(=O)N(c3cccc(F)c3)C3=C2C(=O)OC3)cc1 (centres undefined) | 9.6 (≈ 27.3 µM) |
| Cc1ccccc1NC(=O)Cc1nnc(N)s1 | > 37.2 |
| O=C1CN(S(=O)(=O)c2ccc([N+](=O)[O-])cc2)CC(=O)N1 | > 44.9 |
| CC(Sc1ccccc1F)C(=O)Nc1cccc(S(=O)(=O)N2CCOCC2)c1 (centres undefined) | > 63.7 |
| CCc1ccccc1NC(=O)N1CCc2ccccc21 | 6.1 (≈ 22.9 µM) |
| COc1cc2nc(-c3ccccc3C)oc(=O)c2cc1OC | < 0.6 |
| CCOc1ccccc1CNCC1CCCO1.Cl (centres undefined) | 31.5 |
| Oc1c(C(c2ccccn2)N2CCOCC2)ccc2cccnc12 (centres undefined) | 1.7 (≈ 5.29 µM) |

| SMILES | solubility kinetic [µg/mL] |
| --- | --- |
| CCCSc1nc2sc3c(c2c(=O)[nH]1)CC(C)(CC)OC3 (centres undefined) | 1.5 (≈ 4.62 µM) |
| COc1ccc(Cl)cc1N=Cc1c(O)n(C)c(=O)n(C)c1=O | 2 (≈ 6.18 µM) |
| O=C(CNC(=O)C1CCCCC1)OCC(=O)c1cccc(Cl)c1 | 46.8 (≈ 139 µM) |
| O=C(O)CCC(=O)N(Cc1ccco1)C1CC(=O)N(c2ccccc2)C1=O (centres undefined) | > 55.6 |
| C=CCOc1ccc(/C=C2\SC(N)=NC2=O)cc1OC | 5.7 (≈ 19.6 µM) |
| O=C(Cc1ccc(Br)cc1)NCCc1ccc(F)cc1 | 14.9 (≈ 44.3 µM) |
| CCN1CCN(S(=O)(=O)c2ccc(C(C)(C)C)cc2)CC1 | 45.6 (≈ 147 µM) |
| Cn1ccnc1SCC(=O)Nc1nc2c(F)c(F)c(F)cc2s1 | 0.6 (≈ 1.67 µM) |
| COc1ccc(/C=C/C(=O)O)cc1S(=O)(=O)NCc1ccccc1 | 49.6 (≈ 143 µM) |
| CCCNC(=O)c1ccc(COc2cccc3ccccc23)o1 | 15.8 (≈ 51.1 µM) |
| O=C(Cc1cccs1)Nc1ccccc1F | > 35.3 |
| O=C(Nc1ccccc1)N(C1=NCCC1)c1ccccc1 | 5.4 (≈ 19.3 µM) |
| NC(=O)C1CC(=O)N(c2ccc(OCC(=O)NCc3ccccc3)cc2)C1 (centres undefined) | > 55.1 |
| CC1(NC(=O)Cc2csc(-c3ccc(Cl)cc3)n2)CCS(=O)(=O)C1 (centres undefined) | > 57.7 |
| NS(=O)(=O)c1cnccc1NCCc1ccccc1 | 40.3 (≈ 145 µM) |
| COc1ccc(NC(=O)N2CCc3cc(OC)c(OC)cc3C2)cc1 | 9.1 (≈ 26.6 µM) |
| Oc1ccc(CCC2CCCCN2Cc2nc(C3CC3)no2)cc1 (centres undefined) | > 49.1 |
| Cc1cccc(OC(C)C(=O)Nc2ccc(S(=O)(=O)N3CCCC3)cc2)c1 (centres undefined) | 16.4 (≈ 42.2 µM) |
| O=C(Cn1c(=O)oc2ccccc21)Nc1cccc(Cl)c1 | 2.1 (≈ 6.94 µM) |
| Cc1ccc(S(=O)(=O)Oc2ccccc2/C=C2/SC(=O)NC2=O)cc1 | 52.7 (≈ 140 µM) |
| Cn1cccc1C1CCCN1CC(=O)Nc1c(Cl)cc(Cl)cc1Cl (centres undefined) | 32.5 (≈ 84 µM) |
| O=C(c1cccnc1)N1N=C2CCCCCC2C1(O)C(F)(F)F (centres undefined) | > 49.1 |
| CCCc1cc(NCc2ccccn2)n2c(nc3ccccc32)c1C#N | < 0.1 |
| O=C1CSC(c2cccnc2)N1CCc1ccccn1 (centres undefined) | > 42.8 |

| SMILES | solubility kinetic [µg/mL] |
| --- | --- |
| CC1([N+](=O)[O-])COC2(OC1)C(=O)Nc1ccccc12 (centres undefined) | > 39.6 |
| Cc1ccc(NC(c2ccccc2)c2nc3ccccc3[nH]c2=O)cc1 (centres undefined) | 0.5 (≈ 1.46 µM) |
| CCCN1CCC(N2CCCC(C(=O)O)C2)CC1.Cl (centres undefined) | > 49.1 |
| COC(=O)C1CCN(Cc2cc(=O)oc3cc(C)c(Cl)cc23)CC1 | 4.7 (≈ 13.4 µM) |
| Cc1ccccc1OCC(=O)OCC(=O)Nc1ccc(Cl)cn1 | 47.2 (≈ 141 µM) |
| O=C(Nc1ccc2c(c1)CCC2)c1cccs1 | 30.8 (≈ 127 µM) |
| Cc1c(O)c2ccccc2n(-c2ccccc2)c1=O | > 37.7 |
| COc1ccc(C(C)(C)C)cc1NC(=O)CCNC(=O)c1ccco1 | > 51.7 |
| Cc1ccc(/C=N/NC(=O)c2cccnc2)o1 | > 34.4 |
| COc1ccccc1NS(=O)(=O)c1cccc(NC(=O)c2cncc(Br)c2)c1 | 6.4 (≈ 13.8 µM) |
| COc1ccccc1C(=O)COC(=O)C(NC(=O)Cc1ccccc1)C(C)C (centres undefined) | 56.5 (≈ 147 µM) |
| COC(=O)Cn1c(=O)c(C)nc2ccccc21 | > 34.8 |
| COc1cccc(C(=O)OCCNC(=O)c2cccnc2)c1.Cl | 43.3 |
| Cc1cc(C)cc(NC(=O)COC(=O)COc2ccc(N(C)S(=O)(=O)c3cccs3)cc2)c1 | 9.1 (≈ 18.6 µM) |
| COC(=O)C1=C(N)Oc2cc(C)[nH]c(=O)c2C1c1ccc(Cl)cc1 (centres undefined) | 1.7 (≈ 4.9 µM) |
| NC1=NC(=O)/C(=C\c2cccnc2)S1 | > 30.8 |
| CS(=O)(=O)c1ccc2nc(NC(=O)CN3CCOCC3)sc2c1 | 40.6 (≈ 114 µM) |
| CN1C(=O)N(C)C(c2ccccc2Cl)C2=C1CC(C)(C)CC2=O (centres undefined) | > 49.9 |
| CC1CN(C(=O)CCNC(=O)c2ccccc2Cl)CC(C)O1 (centres undefined) | > 48.7 |
| O=C(COc1ccc(Cl)cc1)Nc1ccc2oc(=O)ccc2c1 | < 0.7 |
| CCOc1ccc(N/C(N)=N/c2nc(C)c(C)c(=O)[nH]2)cc1 | 2.3 (≈ 7.63 µM) |
| CCCc1cnc(N2CCN(C(=S)NC)CC2)nc1 | 38.7 (≈ 139 µM) |
| COC(=O)c1cccc(NC(=O)Nc2ccc(Cl)cc2Cl)c1 | < 0.4 |
| COCc1cc(=O)[nH]c(-c2csc(C)n2)n1 | > 35.6 |

| SMILES | solubility kinetic [µg/mL] |
| --- | --- |
| O=C1CCCC(O)=C1C=NCc1ccccc1 | > 34.4 |
| S=C(NCC(c1ccco1)N1CCCC1)Nc1ccccc1 (centres undefined) | > 47.3 |
| O/N=C/c1ccnc(SCc2ccc(Cl)cc2)n1 | 1.2 (≈ 4.29 µM) |
| CCOC(=O)Cn1c(=NC(=O)C(C)C)sc2c(C)cc(C)cc21 | < 0.4 |
| CCOc1ccccc1NS(=O)(=O)c1csc(C(N)=O)c1 | > 49 |
| O=C(CC1NCCN(Cc2ccccc2)C1=O)Nc1ccc(Cl)cc1 (centres undefined) | 46.8 (≈ 131 µM) |
| CCOc1cc(Cl)c(CNCCCN2CCOCC2)cc1OC | > 51.4 |
| COc1ccc(C)cc1S(=O)(=O)NC1CCCCCC1 | 4.8 (≈ 16.1 µM) |
| C/C=C/C(=O)N1c2ccc(C)cc2C(C)=CC1(C)C | 1.2 (≈ 4.7 µM) |
| Cc1nc(Nc2nc3ccccc3o2)nc(C)c1C | 15.8 (≈ 62.1 µM) |
| Oc1ccc(NCc2ccc(OCc3ccccc3)cc2)cc1 | 9.7 (≈ 31.8 µM) |
| Cc1cc(C)cc(N=Cc2c(O)c3ccccc3oc2=O)c1 | < 0.6 |
| NC1=NC(=O)/C(=C/c2ccc(Cl)cc2Cl)S1 | 1.3 (≈ 4.76 µM) |
| O=C(O)CC(NC(=O)C1CCCCC1)c1ccc(OC2CCCC2)cc1 (centres undefined) | 53.4 (≈ 149 µM) |
| O=C(NC(=O)c1ccc(C(F)(F)F)cc1)Nc1ccc(-c2cnco2)cc1 | 2.8 (≈ 7.46 µM) |
| CC(C)[N+](C)(CCOC(=O)C1c2ccccc2Oc2ccccc21)C(C)C.[Br-] | > 67.3 |
| C=CCN1CCN(C(=O)c2c(-c3ccccc3)noc2C)CC1 | > 46.7 |
| O=S(=O)([O-])CCC[N+]1(CC#Cc2ccccc2)CCCCC1 | > 48.2 |
| O=C(Cc1ccccc1)Nc1ccc(C(=O)NCc2ccccc2)cc1 | < 0.4 |
| COc1cccc(Nc2nc(-c3sc(C)nc3C)cs2)c1 | 0.3 (≈ 0.945 µM) |
| Cn1c(SCC(=O)NC2CCCC2)nnc1C(F)(F)F | > 46.2 |
| Cc1cc(NC(=O)c2cccs2)ncc1NC(=O)C(C)C | > 45.5 |
| Nc1nc(Nc2cccc(F)c2)nc(NCCO)c1[N+](=O)[O-] | 12.8 (≈ 41.5 µM) |
